Measurements reported in patent US10077241B2 (Janssen Pharmaceutica NV, priority 2014, dated 2018).

Tests used:
[1] = target: T1, TGR5 (NCI-H716 cell line) (Homo sapiens, UniProt Q8TDU6); experiment: NCI-H716 cAMP Agonist EC50 Determination
T1 sequence (Q8TDU6 1-330): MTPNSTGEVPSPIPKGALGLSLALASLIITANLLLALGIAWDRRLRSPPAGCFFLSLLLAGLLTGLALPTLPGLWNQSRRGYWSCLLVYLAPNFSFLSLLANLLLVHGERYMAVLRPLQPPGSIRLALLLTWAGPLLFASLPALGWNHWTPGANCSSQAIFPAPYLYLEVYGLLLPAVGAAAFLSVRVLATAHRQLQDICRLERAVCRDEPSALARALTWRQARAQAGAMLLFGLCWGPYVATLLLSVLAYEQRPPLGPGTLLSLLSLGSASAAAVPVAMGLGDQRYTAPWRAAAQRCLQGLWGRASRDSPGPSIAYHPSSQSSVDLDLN
Method: Cells were cultured in suspension using RPM containing: 10% HI FBS, and 1× Penn/Strep and were cryostored (1E7 cells/vial in 5% DMSO).
A Normalized signal (NS) is generated by the Envision for each well ((Read 1/Read 2)×10,000).
The data from the Envision were imported to an Excel worksheet. nM cAMP is calculated for each well from the cAMP standard curves located on each plate by first calculating the slope and deriving the intercept (b).
[formula] [formula] [formula] EC50 values were determined from a 4-point fit (Hill equation) of a single 11-point compound dosing.

TGR5 (STC1 cell line) = target: T2, TGR5 (STC1 cell line) (Mus musculus, UniProt Q80SS6); experiment: STC1 cAMP Agonist EC50 Determination
T2 sequence (Q80SS6 1-329): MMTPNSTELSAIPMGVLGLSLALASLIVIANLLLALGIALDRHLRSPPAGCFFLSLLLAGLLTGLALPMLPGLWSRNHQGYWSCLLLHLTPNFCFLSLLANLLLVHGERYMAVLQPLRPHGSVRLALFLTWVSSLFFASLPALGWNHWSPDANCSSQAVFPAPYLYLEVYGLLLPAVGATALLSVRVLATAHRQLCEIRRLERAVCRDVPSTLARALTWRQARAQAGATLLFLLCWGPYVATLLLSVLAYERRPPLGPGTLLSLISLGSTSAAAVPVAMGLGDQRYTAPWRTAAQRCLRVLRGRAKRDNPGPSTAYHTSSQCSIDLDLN

| SMILES | EC50 [1] [nM] | EC50 (TGR5 (STC1 cell line)) [nM] |
| --- | --- | --- |
| COc1cc(C2(C)CCCc3nc(SCc4c(F)cc(C(=O)NCCOCCOCCOCCO)cc4F)n(-c4ccc(F)cc4)c32)ccc1Cl (stereo not shown) [Example 84, 4-((7-(4-chloro-3-methoxyphenyl)-1-(4-fluorophenyl)-7-methyl-4,5,6,7-tetrahydro-1H-benzo[d]imidazol-2-ylthio)methyl)-3,5-difluoro-N-(2-(2-(2-(2-hydroxyethoxy)ethoxy)ethoxy)ethyl)benzamide trifluoroacetic acid] | 38700 | 340 |
| COc1cc(C2(C)CCCc3nc(SCc4ncncc4Cl)n(-c4ccc(F)cc4)c32)ccc1Cl (stereo not shown) [Example 86, 7-(4-chloro-3-methoxyphenyl)-2-((5-chloropyrimidin-4-yl)methylthio)-1-(4-fluorophenyl)-7-methyl-4,5,6,7-tetrahydro-1H-benzo[d]imidazole trifluoroacetic acid] | 27100 | 2220 |
| COc1cc(C2(C)CCCc3nc(SCc4ccccc4)n(-c4ccc(F)cc4)c32)ccc1Cl (stereo not shown) [Example 87, 2-(benzylsulfanyl)-7-(4-chloro-3-methoxyphenyl)-1-(4-fluorophenyl)-7-methyl-4,5,6,7-tetrahydro-1H-1,3-benzodiazole] | > 50000 | 47800 |
| COc1cc(C2(C)CCCc3nc(SCc4ccncc4)n(-c4ccc(F)cc4)c32)ccc1Cl (stereo not shown) [Example 88] | > 50000 | 4780 |
| COc1cc(C2(C)CCCc3nc(SCc4c(F)cc(C#N)cc4F)n(-c4ccc(F)cc4)c32)ccc1Cl (stereo not shown) [Example 89, 4-((7-(4-chloro-3-methoxyphenyl)-1-(4-fluorophenyl)-7-methyl-4,5,6,7-tetrahydro-1H-benzo[d]imidazol-2-ylthio)methyl)-3,5-difluorobenzonitrile trifluoroacetic acid] | > 50000 | 2080 |
| COc1cc(C2(C)CCCc3nc(SCc4c(F)cc(-c5nn[nH]n5)cc4F)n(-c4ccc(F)cc4)c32)ccc1Cl (stereo not shown) [Example 90, 7-(4-chloro-3-methoxyphenyl)-2-(2,6-difluoro-4-(2H-tetrazol-5-yl)benzylthio)-1-(4-fluorophenyl)-7-methyl-4,5,6,7-tetrahydro-1H-benzo[d]imidazole trifluoroacetic acid] | > 50000 | 3900 |
| CNC(=O)c1cc(F)c(CSc2nc3c(n2-c2ccc(F)cc2)C(C)(c2ccc(Cl)c(OC)c2)CCC3)c(F)c1 (stereo not shown) [Example 91, 4-((7-(4-chloro-3-methoxyphenyl)-1-(4-fluorophenyl)-7-methyl-4,5,6,7-tetrahydro-1H-benzo[d]imidazol-2-ylthio)methyl)-3,5-difluoro-N-methylbenzamide trifluoroacetic acid] | > 50000 | 230 |
| COc1cc(C2(C)CCCc3nc(SCc4c(F)cc(C(=O)N(C)C)cc4F)n(-c4ccc(F)cc4)c32)ccc1Cl (stereo not shown) [Example 92, 4-([[7-(4-chloro-3-methoxyphenyl)-1-(4-fluorophenyl)-7-methyl-4,5,6,7-tetrahydro-1H-1,3-benzodiazol-2-yl]sulfanyl]methyl)-3,5-difluoro-N,N-dimethylbenzamide] | 18100 | 120 |
| COc1cc(C2(C)CCCc3nc(SCc4c(F)cc(C(=O)N5CCOCC5)cc4F)n(-c4ccc(F)cc4)c32)ccc1Cl (stereo not shown) [Example 93, 7-(4-chloro-3-methoxyphenyl)-2-[([2,6-difluoro-4-[(morpholin-4-yl)carbonyl]phenyl]methyl)sulfanyl]-1-(4-fluorophenyl)-7-methyl-4,5,6,7-tetrahydro-1H-1,3-benzodiazole] | > 50000 | 250 |
| COc1cc(C2(C)CCCc3nc(SCc4c(F)cc(C(=O)NCCO)cc4F)n(-c4ccc(F)cc4)c32)ccc1Cl (stereo not shown) [Example 94, 4-((7-(4-chloro-3-methoxyphenyl)-1-(4-fluorophenyl)-7-methyl-4,5,6,7-tetrahydro-1H-benzo[d]imidazol-2-ylthio)methyl)-3,5-difluoro-N-(2-hydroxyethyl)benzamide trifluoroacetic acid] | > 50000 | 410 |
| COc1cc(C2(C)CCCc3nc(SCc4c(F)ccc(O)c4F)n(-c4ccc(F)cc4)c32)ccc1Cl (stereo not shown) [Example 95, 3-((7-(4-chloro-3-methoxyphenyl)-1-(4-fluorophenyl)-7-methyl-4,5,6,7-tetrahydro-1H-benzo[d]imidazol-2-ylthio)methyl)-2,4-difluorophenol trifluoroacetic acid] | 12500 | 370 |
| COc1cc(C2(C)CCCc3nc(SCc4c(F)ccc(OCCN(C)C)c4F)n(-c4ccc(F)cc4)c32)ccc1Cl (stereo not shown) [Example 96, 2-(3-((7-(4-chloro-3-methoxyphenyl)-1-(4-fluorophenyl)-7-methyl-4,5,6,7-tetrahydro-1H-benzo[d]imidazol-2-ylthio)methyl)-2,4-difluorophenoxy)-N,N-dimethylethanamine trifluoroacetic acid] | > 50000 | 13400 |
| COc1cc(C2(C)CCCc3nc(SCc4c(F)cncc4F)n(-c4ccc(F)cc4)c32)ccc1Cl (stereo not shown) [Example 98, 2-((3,5-difluoropyridin-4-yl)methylthio)-7-(4-chloro-3-methoxyphenyl)-1-(4-fluorophenyl)-4,5,6,7-tetrahydro-7-methyl-1H-benzo[d]imidazole trifluoroacetic acid] | 24300 | 160 |
| COc1ccc(C2(C)CCCc3nc(SCc4ccccc4)n(-c4ccc(F)cc4)c32)cc1OC (stereo not shown) [Example 99, 2-(benzylthio)-7-(3,4-dimethoxyphenyl)-1-(4-fluorophenyl)-7-methyl-4,5,6,7-tetrahydro-1H-benzo[d]imidazole] | 33100 | 2390 |
| COc1ccc(C2(C)CCCc3nc(SCc4c(F)cc(C#N)cc4F)n(-c4ccc(F)cc4)c32)cc1OC (stereo not shown) [Example 102, 4-(((7-(3,4-dimethoxyphenyl)-1-(4-fluorophenyl)-7-methyl-4,5,6,7-tetrahydro-1H-benzo[d]imidazol-2-yl)thio)methyl)-3,5-difluorobenzonitrile] | 1370 | 30 |
| COc1ccc(C2(C)CCCc3nc(SCc4c(F)cc(C(N)=O)cc4F)n(-c4ccc(F)cc4)c32)cc1OC (stereo not shown) [Example 104, 4-(((7-(3,4-dimethoxyphenyl)-1-(4-fluorophenyl)-7-methyl-4,5,6,7-tetrahydro-1H-benzo[d]imidazol-2-yl)thio)methyl)-3,5-difluorobenzamide] | 900 | 170 |
| COc1ccc(C2(C)CCCc3nc(SCc4c(F)cc(OCCCl)cc4F)n(-c4ccc(F)cc4)c32)cc1OC (stereo not shown) [Example 107, 2-((4-(2-chloroethoxy)-2,6-difluorobenzyl)thio)-7-(3,4-dimethoxyphenyl)-1-(4-fluorophenyl)-7-methyl-4,5,6,7-tetrahydro-1H-benzo[d]imidazole] | 1400 | 320 |
| COc1ccc(C2(C)CCCc3nc(SCc4c(F)cc(OCCN(C)C)cc4F)n(-c4ccc(F)cc4)c32)cc1OC (stereo not shown) [Example 108, 2-(4-(((7-(3,4-dimethoxyphenyl)-1-(4-fluorophenyl)-7-methyl-4,5,6,7-tetrahydro-1H-benzo[d]imidazol-2-yl)thio)methyl)-3,5-difluorophenoxy)-N,N-dimethylethanamine] | 680 | 310 |
| COc1ccc(C2(C)CCCc3nc(SCc4c(F)cc(Br)cc4F)n(-c4ccc(F)cc4)c32)cc1OC (stereo not shown) [Example 109, 2-((4-bromo-2,6-difluorobenzyl)thio)-7-(3,4-dimethoxyphenyl)-1-(4-fluorophenyl)-7-methyl-4,5,6,7-tetrahydro-1H-benzo[d]imidazole] | 3600 | 200 |
| CCO/C=C/c1cc(F)c(CSc2nc3c(n2-c2ccc(F)cc2)C(C)(c2ccc(OC)c(OC)c2)CCC3)c(F)c1 (stereo not shown) [Example 110, (E)-7-(3,4-dimethoxyphenyl)-2-((4-(2-ethoxyvinyl)-2,6-difluorobenzyl)thio)-1-(4-fluorophenyl)-7-methyl-4,5,6,7-tetrahydro-1H-benzo[d]imidazole] | 1180 | 450 |
| COc1ccc(C2(C)CCCc3nc(SCc4c(F)cc(CCN(C)C)cc4F)n(-c4ccc(F)cc4)c32)cc1OC (stereo not shown) [Example 111, 2-(4-(((7-(3,4-dimethoxyphenyl)-1-(4-fluorophenyl)-7-methyl-4,5,6,7-tetrahydro-1H-benzo[d]imidazol-2-yl)thio)methyl)-3,5-difluorophenyl)-N,N-dimethylethanamine] | 1410 | 200 |
| COc1ccc(C2(C)CCCc3nc(SCc4c(F)cc(CCN5CCOCC5)cc4F)n(-c4ccc(F)cc4)c32)cc1OC (stereo not shown) [Example 112, 4-(4-(((7-(3,4-dimethoxyphenyl)-1-(4-fluorophenyl)-7-methyl-4,5,6,7-tetrahydro-1H-benzo[d]imidazol-2-yl)thio)methyl)-3,5-difluorophenethyl)morpholine] | 300 | 130 |
| COc1ccc(C2(C)CCCc3nc(SCc4c(Cl)cccc4Cl)n(-c4ccc(F)cc4)c32)cc1OC (stereo not shown) [Example 114, 2-((2,6-dichlorobenzyl)thio)-7-(3,4-dimethoxyphenyl)-1-(4-fluorophenyl)-7-methyl-4,5,6,7-tetrahydro-1H-benzo[d]imidazole] | 25700 | 1640 |
